Data on 21 molecules can be found in US10100049B2, “JAK kinase inhibitor compounds for treatment of respiratory disease” (THERAVANCE BIOPHARMA R&D IP, LLC, priority 2015, dated 2018).

Series [1] concerns IL-13 induced STAT6 phosphorylation in BEAS-2B human lung epithelial cells. As to the kind of experiment: AlphaScreen cellular potency assay, IL-13 induced STAT6 phosphorylation in BEAS-2B cells. It is filed as cell-based. As to conditions: IL-13 induced STAT6 phosphorylation, BEAS-2B cells; for IC50: Homo sapiens, read-out: BEAS-2B pIC50 (converted).
Description: The AlphaScreen JAM cellular potency assay was carried out by measuring interleukin-13 (IL-13, R&D Systems) induced STAT6 phosphorylation in BEAS-2B human lung epithelial cells (ATCC). The anti-STAT6 antibody (Cell Signaling Technologies) was conjugated to AlphaScreen acceptor beads (Perkin Elmer), while the anti-pSTAT6 (pTyr641) antibody (Cell Signaling Technologies) was biotinylated using EZ-Link Sulfo-NHS-Biotin (Thermo Scientific).
BEAS-2B cells were grown at 37° C. in a 5% CO2 humidified incubator in 50% DMEM/50% F-12 medium (Life Technologies) supplemented with 10% FBS (Hyclone), 100 U/mL penicillin, 100 μg/mL streptomycin (Life Technologies), and 2 mM GlutaMAX (Life Technologies). On day 1 of the assay, cells were seeded at a 7,500 cells/well density in white poly-D-lysine-coated 384-well plates (Corning) with 25 μL medium, and were allowed to adhere overnight in the incubator. On day 2 of the assay, the medium was removed and replaced with 12 μL of assay buffer (Hank's Balanced Salt Solution/HBSS, 25 mM HEPES, and 1 mg/ml bovine serum albumin/BSA) containing dose-responses of test compounds. Compounds were serially diluted in DMSO and then diluted another 1000-fold in media to bring the final DMSO concentration to 0.1%. Cells were incubated with test compounds at 37° C. for 1 h, and followed by the addition of 12 μl of pre-warmed IL-13 (80 ng/ml in assay buffer) for stimulation. After incubating at 37° C. for 30 min, the assay buffer (containing compound and IL-13) was removed, and 10 μl of cell lysis buffer (25 mM HEPES, 0.1% SDS, 1% NP-40, 5 mM MgCl2, 1.3 mM EDTA, 1 mM EGTA, and supplement with Complete Ultra mini protease inhibitors and PhosSTOP from Roche Diagnostics). The plates were shaken at ambient temperature for 30 min before the addition of detection reagents. A mixture of biotin-anti-pSTAT6 and anti-STAT6 conjugated acceptor beads was added first and incubated at ambient temperature for 2 h, followed by the addition of streptavidin conjugated donor beads (Perkin Elmer). After a minimum of 2 h incubation, the assay plates were read on the EnVision plate reader.
Results were expressed as the negative logarithm of the IC50 value, pIC50.
For a further series, the target named is JAK2 (Homo sapiens (Human), UniProt O60674).
JAK2, sequence (O60674 whole entry): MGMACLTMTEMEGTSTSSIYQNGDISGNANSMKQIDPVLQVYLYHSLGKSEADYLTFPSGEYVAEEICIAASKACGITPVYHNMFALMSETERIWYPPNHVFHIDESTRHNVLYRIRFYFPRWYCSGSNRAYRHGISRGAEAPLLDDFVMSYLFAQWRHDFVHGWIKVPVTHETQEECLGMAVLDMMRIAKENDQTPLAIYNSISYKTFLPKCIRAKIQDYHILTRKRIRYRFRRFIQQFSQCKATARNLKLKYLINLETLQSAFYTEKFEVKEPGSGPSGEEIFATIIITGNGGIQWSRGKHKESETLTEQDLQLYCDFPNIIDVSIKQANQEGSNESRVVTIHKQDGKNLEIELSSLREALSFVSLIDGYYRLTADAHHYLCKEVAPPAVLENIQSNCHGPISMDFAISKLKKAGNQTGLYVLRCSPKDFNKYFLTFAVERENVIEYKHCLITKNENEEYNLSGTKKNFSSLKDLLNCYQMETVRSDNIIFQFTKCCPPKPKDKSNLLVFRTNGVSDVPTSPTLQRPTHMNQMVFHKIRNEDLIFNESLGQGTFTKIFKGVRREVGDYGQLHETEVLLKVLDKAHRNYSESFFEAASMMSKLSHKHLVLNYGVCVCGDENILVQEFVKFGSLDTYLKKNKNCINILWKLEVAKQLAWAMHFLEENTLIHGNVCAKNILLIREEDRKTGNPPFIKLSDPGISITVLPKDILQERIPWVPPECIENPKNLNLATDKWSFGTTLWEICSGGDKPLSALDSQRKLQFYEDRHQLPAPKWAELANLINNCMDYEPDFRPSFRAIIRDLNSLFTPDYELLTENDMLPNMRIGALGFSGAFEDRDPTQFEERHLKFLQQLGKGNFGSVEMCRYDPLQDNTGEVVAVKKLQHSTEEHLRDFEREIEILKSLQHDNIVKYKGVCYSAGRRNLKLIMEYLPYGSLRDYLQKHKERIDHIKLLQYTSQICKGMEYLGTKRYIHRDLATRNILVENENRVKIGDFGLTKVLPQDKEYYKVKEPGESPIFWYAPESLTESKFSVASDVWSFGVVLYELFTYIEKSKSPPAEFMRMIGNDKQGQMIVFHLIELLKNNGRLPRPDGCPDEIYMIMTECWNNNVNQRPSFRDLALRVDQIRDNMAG
Series [2] in a line: Pharmacokinetics in plasma and lung in mouse. It is filed as in vivo. The following applies: oral aspiration 0.2 mg/mL 50 uL, lung AUC (μg hr/g) / plasma AUC (μg hr/mL). The protocol:
Plasma and lung levels of test compounds and ratios thereof were determined in the following manner. BALB/c mice from Charles River Laboratories were used in the assay. Test compounds were individually formulated in 20% propylene glycol in pH 4 citrate buffer at a concentration of 0.2 mg/mL and 50 uL of the dosing solution was introduced into the trachea of a mouse by oral aspiration. At various time points (typically 0.167, 2, 6, 24 hr) post dosing, blood samples were removed via cardiac puncture and intact lungs were excised from the mice. Blood samples were centrifuged (Eppendorf centrifuge, 5804R) for 4 minutes at approximately 12,000 rpm at 4° C. to collect plasma. Lungs were padded dry, weighed, and homogenized at a dilution of 1:3 in sterile water. Plasma and lung levels of test compound were determined by LC-MS analysis against analytical standards constructed into a standard curve in the test matrix. A lung to plasma ratio was determined as the ratio of the lung AUC in μg hr/g to the plasma AUC in μg hr/mL, where AUC is conventionally defined as the area under the curve of test compound concentration vs. time.

In series [3] the test system is IL-13 induced pSTAT6 in lung tissue. The series is described as follows: Murine model of IL-13 induced pSTAT6 induction in lung tissue. As to conditions: mouse lung; for pSTAT6 inhibition Assay 5 / inhibition in vivo at 500 µg/mL: 0.5 mg/mL, 50 μL oral aspiration, IL-13 challenge 4 h after dosing, lungs collected 1 h later; for inhibition in vivo at 500 µg/mL: read-out: pSTAT6 inhibition Assay 5. It is filed as in vivo. As for the experimental part: Il-13 is an important cytokine underlying the pathophysiology of asthma (Kudlacz et al. Eur. J. Pharmacol, 2008, 582, 154-161). IL-13 binds to cell surface receptors activating members of the Janus family of kinases (JAK) which then phosphorylate STAT6 and subsequently activates further transcription pathways. In the described model, a dose of IL-13 was delivered locally into the lungs of mice to induce the phosphorylation of STAT6 (pSTAT6) which is then measured as the endpoint.
Adult balb/c mice from Harlan were used in the assay. On the day of study, animals were lightly anesthetized with isoflurane and administered either vehicle or test compound (0.5 mg/mL, 50 μL total volume over several breaths) via oral aspiration. Animals were placed in lateral recumbency post dose and monitored for full recovery from anesthesia before being returned to their home cage. Four hours later, animals were once again briefly anesthetized and challenged with either vehicle or IL-13 (0.03 μg total dose delivered, 50 μL total volume) via oral aspiration before being monitored for recovery from anesthesia and returned to their home cage. One hour after vehicle or IL-13 administration, lungs were collected for both pSTAT6 detection using an anti-pSTAT6 ELISA (rabbit mAb capture/coating antibody; mouse mAb detection/report antibody: anti-pSTAT6-pY641; secondary antibody: anti-mouse IgG-HRP) and analyzed for total drug concentration as described above in Assay 4.
Selected compounds of the invention were tested in the assay. Activity in the model is evidenced by a decrease in the level of pSTAT6 present in the lungs of treated animals at 5 hours compared to the vehicle treated, IL-13 challenged control animals. The difference between the control animals which were vehicle-treated, IL-13 challenged and the control animals which were vehicle-treated, vehicle challenged dictated the 0% and 100% inhibitory effect, respectively, in any given experiment.

The target in a further series is JAK3 (Homo sapiens (Human), UniProt P52333). The series is described as follows: LanthaScreen JAK biochemical assay (JAK3). The following applies: ATP at Km 1.6 μM; read-out: JAK 3 (pKi) (converted). (In general: In TR-FRET formats the signal depends on donor and acceptor labels being close together.)
JAK3, sequence (P52333 whole entry): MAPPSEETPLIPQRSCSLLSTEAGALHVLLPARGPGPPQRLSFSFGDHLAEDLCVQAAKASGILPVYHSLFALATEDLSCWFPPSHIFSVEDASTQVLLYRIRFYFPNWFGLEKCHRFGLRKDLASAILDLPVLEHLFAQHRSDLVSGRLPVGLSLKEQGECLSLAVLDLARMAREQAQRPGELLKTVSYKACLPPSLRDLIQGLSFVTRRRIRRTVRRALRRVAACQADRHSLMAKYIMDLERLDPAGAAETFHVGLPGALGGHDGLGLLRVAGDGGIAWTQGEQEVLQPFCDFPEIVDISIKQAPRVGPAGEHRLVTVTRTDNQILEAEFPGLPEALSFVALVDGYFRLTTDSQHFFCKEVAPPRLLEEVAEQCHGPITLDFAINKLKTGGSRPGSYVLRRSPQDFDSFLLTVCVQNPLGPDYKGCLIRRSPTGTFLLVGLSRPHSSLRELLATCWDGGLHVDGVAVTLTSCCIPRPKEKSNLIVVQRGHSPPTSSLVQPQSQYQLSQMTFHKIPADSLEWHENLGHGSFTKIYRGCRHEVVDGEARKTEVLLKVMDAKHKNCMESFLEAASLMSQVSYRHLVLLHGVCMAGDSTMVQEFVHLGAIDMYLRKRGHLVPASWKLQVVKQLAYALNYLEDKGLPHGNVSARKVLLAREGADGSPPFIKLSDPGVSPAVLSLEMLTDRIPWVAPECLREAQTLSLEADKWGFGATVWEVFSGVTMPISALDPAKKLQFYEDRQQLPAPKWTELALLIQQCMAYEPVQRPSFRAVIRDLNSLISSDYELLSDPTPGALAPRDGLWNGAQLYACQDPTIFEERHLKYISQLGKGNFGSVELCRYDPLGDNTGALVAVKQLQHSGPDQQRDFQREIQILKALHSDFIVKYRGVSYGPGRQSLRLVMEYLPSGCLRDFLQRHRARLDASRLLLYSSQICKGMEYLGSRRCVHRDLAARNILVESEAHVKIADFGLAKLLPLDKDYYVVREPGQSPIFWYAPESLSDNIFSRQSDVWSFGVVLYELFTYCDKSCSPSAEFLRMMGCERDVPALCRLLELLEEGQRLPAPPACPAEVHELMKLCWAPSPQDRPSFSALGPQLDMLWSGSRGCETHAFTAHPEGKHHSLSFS
For the next series, the target named is Tyk2 (Homo sapiens (Human), UniProt P29597). The series is described as follows: LanthaScreen JAK biochemical assay (Tyk2). Also: ATP at Km 10 µM. As to conditions: read-out: Tyk 2 (PKi).
Tyk2, sequence (P29597 whole entry): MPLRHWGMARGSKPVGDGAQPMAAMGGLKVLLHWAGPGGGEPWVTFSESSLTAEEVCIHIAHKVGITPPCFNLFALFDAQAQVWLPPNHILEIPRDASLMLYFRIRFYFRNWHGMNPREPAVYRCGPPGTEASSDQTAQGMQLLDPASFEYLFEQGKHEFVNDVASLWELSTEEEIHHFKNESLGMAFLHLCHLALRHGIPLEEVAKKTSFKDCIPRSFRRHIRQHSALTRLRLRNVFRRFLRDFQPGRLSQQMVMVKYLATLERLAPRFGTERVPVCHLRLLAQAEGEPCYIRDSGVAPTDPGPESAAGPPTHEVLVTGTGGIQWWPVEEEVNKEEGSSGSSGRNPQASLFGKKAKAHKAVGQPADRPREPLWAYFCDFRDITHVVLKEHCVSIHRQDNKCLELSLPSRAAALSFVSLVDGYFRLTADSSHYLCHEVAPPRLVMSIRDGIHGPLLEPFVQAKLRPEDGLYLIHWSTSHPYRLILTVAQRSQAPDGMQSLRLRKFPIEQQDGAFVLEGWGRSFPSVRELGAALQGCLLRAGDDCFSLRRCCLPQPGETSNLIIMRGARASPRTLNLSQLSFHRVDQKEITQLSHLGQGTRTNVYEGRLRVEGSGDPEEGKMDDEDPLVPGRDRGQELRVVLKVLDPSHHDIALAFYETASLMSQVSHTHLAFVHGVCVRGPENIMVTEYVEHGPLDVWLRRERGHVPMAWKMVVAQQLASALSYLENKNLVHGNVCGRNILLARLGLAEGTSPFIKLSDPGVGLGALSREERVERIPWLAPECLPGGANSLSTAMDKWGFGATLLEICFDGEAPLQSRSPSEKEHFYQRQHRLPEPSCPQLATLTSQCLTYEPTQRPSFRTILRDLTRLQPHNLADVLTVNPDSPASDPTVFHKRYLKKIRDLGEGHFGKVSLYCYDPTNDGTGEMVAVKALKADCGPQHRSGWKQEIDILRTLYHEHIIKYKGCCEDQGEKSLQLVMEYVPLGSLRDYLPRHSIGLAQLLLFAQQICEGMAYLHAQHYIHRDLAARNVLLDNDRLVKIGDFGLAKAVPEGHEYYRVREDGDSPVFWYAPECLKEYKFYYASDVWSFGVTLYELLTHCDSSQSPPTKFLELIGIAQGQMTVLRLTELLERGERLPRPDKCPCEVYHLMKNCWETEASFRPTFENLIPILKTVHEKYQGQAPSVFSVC

Turning to `CCc1cc(O)c(F)cc1-c1ccc2c(-c3nc4c([nH]3)CCN(C3CN(CCO)C3)C4)n[nH]c2c1` [Example 1-1], the “BEAS-2B pIC50” value in series [1] was “B (B represents a pIC50 value between 7.4 and 8 (IC50 between 40 nM and 10 nM))”. Moreover, at JAK2, the Ki was under 100 pM.
Turning to `CCc1cc(O)c(F)cc1-c1ccc2c(-c3nc4c([nH]3)CCN(C3CN(CC)C3)C4)n[nH]c2c1` [Example 1-3], the “BEAS-2B pIC50” value in series [1] is “B (B represents a pIC50 value between 7.4 and 8 (IC50 between 40 nM and 10 nM))”. The Ki on JAK2 was under 100 pM.
Regarding `CCc1cc(O)c(F)cc1-c1ccc2c(-c3nc4c([nH]3)CCN(C3CN(CCOC)C3)C4)n[nH]c2c1` [Example 1-6], the “BEAS-2B pIC50” value in series [1] is on record as “A (A represents a pIC50 value ≥8 (IC50≤10 nM))”. On JAK2, this molecule gave a Ki of under 100 pM.
On to `CCc1cc(O)c(F)cc1-c1ccc2c(-c3nc4c([nH]3)CCN(C3CN(CCCOC)C3)C4)n[nH]c2c1` [Example 1-7], for which the “Lung to Plasma ratio Assay 4” value in series [2] was “B (B denotes a ratio between 50 and 100)”. Further, the “pSTAT6 inhibition Assay 5” value in series [3] was “C (C represents between 33% and 50% inhibition)”.
`CCc1cc(O)c(F)cc1-c1ccc2c(-c3nc4c([nH]3)CCN(C3CN(CCC#N)C3)C4)n[nH]c2c1` [Example 1-8]: the “BEAS-2B pIC50” value in series [1] was “A (A represents a pIC50 value ≥8 (IC50≤10 nM))”. Besides, the Ki on JAK2 was under 100 pM.
Take `CCc1cc(O)c(F)cc1-c1ccc2c(-c3nc4c([nH]3)CCN(C3CN(CC(C)C)C3)C4)n[nH]c2c1` [Example 1-11]: the “Lung to Plasma ratio Assay 4” value in series [2] is “C (C denotes a ratio between 10 and 50)”. The “pSTAT6 inhibition Assay 5” value in series [3] was “C (C represents between 33% and 50% inhibition)”.
`CCc1cc(O)c(F)cc1-c1ccc2c(-c3nc4c([nH]3)CCN(C3CN(C5CCS(=O)(=O)C5)C3)C4)n[nH]c2c1` (stereo not shown) [Example 1-15]: the “pSTAT6 inhibition in the pharmacodynamic assay” value in series [3] is “exceptions”.
As for `CCc1cc(O)c(F)cc1-c1ccc2c(-c3nc4c([nH]3)CCN(C3CN(CC5CC5)C3)C4)n[nH]c2c1` [Example 1-18], the “Lung to Plasma ratio Assay 4” value in series [2] is “B (B denotes a ratio between 50 and 100)”. Further, the “pSTAT6 inhibition Assay 5” value in series [3] is “C (C represents between 33% and 50% inhibition)”.
As to `CCc1cc(O)c(F)cc1-c1ccc2c(-c3nc4c([nH]3)CCN(C3CCNCC3)C4)n[nH]c2c1` [Example 2-3], the “BEAS-2B pIC50” value in series [1] is “B (B represents a pIC50 value between 7.4 and 8 (IC50 between 40 nM and 10 nM))”. This molecule had a Ki on JAK2 of under 100 pM.
Regarding `CCc1cc(O)c(F)cc1-c1ccc2c(-c3nc4c([nH]3)CCN(CCNC3(C#N)CC3)C4)n[nH]c2c1` [Example 3-1], the “pSTAT6 inhibition in the pharmacodynamic assay” value in series [3] is listed as “exceptions”.
For the molecule `CCc1cc(O)c(F)cc1-c1ccc2c(-c3nc4c([nH]3)CCN(CCN(C)CC(C)C)C4)n[nH]c2c1` [Example 3-33], the “Lung to Plasma ratio Assay 4” value in series [2] is reported as “A (A denotes a ratio >100)”. Moreover, the “pSTAT6 inhibition Assay 5” value in series [3] was “C (C represents between 33% and 50% inhibition)”.
Turning to `CCc1cc(O)c(F)cc1-c1ccc2c(-c3nc4c([nH]3)CCN(C3CN(C(C)CC)C3)C4)n[nH]c2c1` (stereo not shown) [Example 4, 4-(3-(5-(1-(sec-butyl)azetidin-3-yl)-4,5,6,7-tetrahydro-1H-imidazo[4,5-c]pyridin-2-yl)-1H-indazol-6-yl)-5-ethyl-2-fluorophenol], in series [1], the IC50 was under 10000 pM. Also, the “Lung to Plasma ratio Assay 4” value in series [2] is “B (B denotes a ratio between 50 and 100)”. Moreover, the inhibition in vivo at 500 µg/mL in series [3] is over 65%.
Consider `CCc1cc(O)c(F)cc1-c1ccc2c(-c3nc4c([nH]3)CCN(C3CN(C5CC5)C3)C4)n[nH]c2c1` [Example 5, 4-(3-(5-(1-cyclopropylazetidin-3-yl)-4,5,6,7-tetrahydro-1H-imidazo[4,5-c]pyridin-2-yl)-1H-indazol-6-yl)-5-ethyl-2-fluorophenol], for which the Ki on JAK3 was 100 to 1000 pM; on Tyk2, 316 to 1000 pM; at JAK2, under 100 pM. Besides, in series [1], the IC50 was under 10000 pM. The “Lung to Plasma ratio Assay 4” value in series [2] is “C (C denotes a ratio between 10 and 50)”. Also, the inhibition in vivo at 500 µg/mL in series [3] is over 65%.
On to `CCc1cc(O)c(F)cc1-c1ccc2c(-c3nc4c([nH]3)CCN(CCN(C)CC)C4)n[nH]c2c1` [Example 9, 5-ethyl-4-(3-(5-(2-(ethyl(methyl)amino)ethyl)-4,5,6,7-tetrahydro-1H-imidazo[4,5-c]pyridin-2-yl)-1H-indazol-6-yl)-2-fluorophenol], for which the figures for the Ki on Tyk2 and at JAK2 were 316 to 1000 pM and under 100 pM, respectively. For the same molecule, the IC50 in series [1] is under 10000 pM. The “Lung to Plasma ratio Assay 4” value in series [2] was “B (B denotes a ratio between 50 and 100)”. Further, the inhibition in vivo at 500 µg/mL in series [3] lay within 50 to 65%.
`CCc1cc(O)c(F)cc1-c1ccc2c(-c3nc4c([nH]3)CCN(C3CCNC3)C4)n[nH]c2c1` (stereo not shown) [Example 9-1]: in series [1], the “BEAS-2B pIC50” value was “B (B represents a pIC50 value between 7.4 and 8 (IC50 between 40 nM and 10 nM))”. On JAK2, this molecule came in with a Ki of under 100 pM.
`CCc1cc(O)c(F)cc1-c1ccc2c(-c3nc4c([nH]3)CCN(C3CCN(C)C3)C4)n[nH]c2c1` (stereo not shown) [Example 9-2]: the figures for the Ki on Tyk2 and on JAK2 were 316 to 1000 pM and under 100 pM, respectively. The IC50 in series [1] was under 10000 pM.
As to `CCc1cc(O)c(F)cc1-c1ccc2c(-c3nc4c([nH]3)CCN(CCN(C)C(C)CC)C4)n[nH]c2c1` (stereo not shown) [Example 10, 4-(3-(5-(2-(sec-butyl(methyl)amino)ethyl)-4,5,6,7-tetrahydro-1H-imidazo[4,5-c]pyridin-2-yl)-1H-indazol-6-yl)-5-ethyl-2-fluorophenol], the Ki on JAK3 is 100 to 1000 pM; on Tyk2 it was 100 to 1000 pM; at JAK2 it was under 100 pM. Further, the IC50 in series [1] is under 10000 pM. Moreover, the “Lung to Plasma ratio Assay 4” value in series [2] was “B (B denotes a ratio between 50 and 100)”. Moreover, the inhibition in vivo at 500 µg/mL in series [3] lay within 33 to 50%.
For `CCc1cc(O)c(F)cc1-c1ccc2c(-c3nc4c([nH]3)CCN(CC(F)CN(C)C)C4)n[nH]c2c1` (stereo not shown) [Example 12, 4-(3-(5-(3-(dimethylamino)-2-fluoropropyl)-4,5,6,7-tetrahydro-1H-imidazo[4,5-c]pyridin-2-yl)-1H-indazol-6-yl)-5-ethyl-2-fluorophenol], the figures for the Ki at JAK3, on Tyk2 and at JAK2 were 100 to 1000 pM, 316 to 1000 pM and under 100 pM, respectively. In addition, the IC50 in series [1] is under 10000 pM. In series [2], the “Lung to Plasma ratio Assay 4” value was “C (C denotes a ratio between 10 and 50)”. Also, the inhibition in vivo at 500 µg/mL in series [3] is 33 to 50%.
As to `CCc1cc(O)c(F)cc1-c1ccc2c(-c3nc4c([nH]3)CCN(C[C@@H]3COCCN3)C4)n[nH]c2c1` [Example 14, (R)-5-Ethyl-2-fluoro-4-(3-(5-(morpholin-3-ylmethyl)-4,5,6,7-tetrahydro-1H-imidazo[4,5-c]pyridin-2-yl)-1H-indazol-6-yl)phenol], in series [1], the IC50 is under 10000 pM. Also, the “Lung to Plasma ratio Assay 4” value in series [2] is given as “A (A denotes a ratio >100)”. For the same molecule, the inhibition in vivo at 500 µg/mL in series [3] is over 65%. Moreover, the Ki on JAK2 was under 100 pM.
With `CCc1cc(O)c(F)cc1-c1ccc2c(-c3nc4c([nH]3)CCN(CC3CNC3)C4)n[nH]c2c1` [Example 14-7], the “BEAS-2B pIC50” value in series [1] is “B (B represents a pIC50 value between 7.4 and 8 (IC50 between 40 nM and 10 nM))”. Further, the “Lung to Plasma ratio Assay 4” value in series [2] was “A (A denotes a ratio >100)”. The “pSTAT6 inhibition Assay 5” value in series [3] is “B (B represents between 50% and 65% inhibition)”. The molecule also returned a Ki at JAK2 of under 100 pM.
Take `CCc1cc(O)c(F)cc1-c1ccc2c(-c3nc4c([nH]3)CCN(CCN3CCCC3)C4)n[nH]c2c1` [Example 16, 5-Ethyl-2-fluoro-4-(3-(5-(2-(pyrrolidin-1-yl)ethyl)-4,5,6,7-tetrahydro-1H-imidazo[4,5-c]pyridin-2-yl)-1H-indazol-6-yl)phenol]: the IC50 in series [1] is under 10000 pM. At JAK2, this molecule showed a Ki of under 100 pM.
